Experimental data reported in patent US20120196899A1, “METHODS AND PRODUCTS FOR TREATING INFLAMMATION” (Rock Creek Pharmaceuticals, Inc., priority 2010, published 2012).
“And” between values parts separate entries of the source, which are not always exact repeats. Equal values may be shown once. “Also recorded” adds a separate entry of the source.

What was measured:
[1] = Body weights, weight gain and food consumption over 14 days after single i.v. dose; assay type: in vivo, Sprague-Dawley rats; conditions: for day 7 B.W. / day 8 B.W. / day 9 B.W. / day 10 B.W. / day 11 B.W. / day 12 B.W. / day 13 B.W. / day 14 B.W. / day 1 B.W. / day 2 B.W. / day 3 B.W. / day 6 B.W. / day 4 B.W.: individual rats
Experimental: Body weight and food consumption was measured daily for 14 days. On day 15, urine was collected on all surviving animals. The animals were euthanized and bled via cardiac puncture, and blood was collected for analysis. Tissues were collected, weighed, evaluated for gross abnormalities, and stored in 10% neutral-buffered formalin.
All animals were observed daily.

nAChR α4/β2 = target: T1, nAChR α4/β2 (Homo sapiens, UniProt P17787+P43681); assay type: cell-based; conditions: 100 μM Ach + 0.3 μM epibatidine; not concentration-dependent, IC50 not determinable
T1 construct: host or cells: HEK293 cells, transient transfection
Experimental: The following three (3) channels were evaluated: • 1. nAChR α3/β4 (encoded by the human CHRNA3 and CHRNB4 gene and stably expressed in CHO cells); • 2. nAChR α4/β2 (CHRNA4 and CHRNB2 gene and transiently expressed in HEK293 cells); and • 3. nAChR α7 (encoded by the human nicotinic α7 gene coexpressed in CHO cells with the chaperone RIC-3 encoded by the human RIC3 gene).
The ability of each test article to act as an agonist, a positive allosteric modulator or antagonist of three nAChR receptor channels was evaluated in the presence of 0.1 atropine. Both test articles were evaluated for responses on each nAChR channel at eight (8) concentrations: 0.3, 1, 3, 10, 30, 100, 300, and 1000 μM (n=4 for each concentration).
HEK293 or CHO cells were transiently or stably transfected with the appropriate human ion channel cDNAs. Stable transfectants were selected by coexpression with the antibiotic-resistance gene(s) incorporated into the expression plasmid(s). […]
For FLIPR TETRA™ assay, cells were plated in 384-well black wall, flat clear bottom microtiter plates (Type: BD Biocoat Poly-D-Lysine Multiwell Cell Culture Plate) at 20,000 to 30,000 cells per well (384-well plate). Cells were incubated at 37° C. overnight or until the cells reached a sufficient density in the wells (near confluent monolayer) to use in fluorescence assays. […]

Urinalysis, day 15 = assay type: in vivo, Sprague-Dawley rats
Excerpt: On day 15, urine was collected on all surviving animals for urinalysis. The animals were euthanized and bled via cardiac puncture. Blood was collected for hematology, clinical chemistry, and coagulation analysis. Tissues were collected, weighed, and stored in 10% neutral-buffered formalin for possible future analysis.
There were no notable differences between the active treatment groups and controls and the observations are all consistent with those expected for this species.

[2] = Case: treatment of patient with autism and seizure disorder; assay type: in vivo, human patient; conditions: 1.0 mg three times per day
Excerpt: A patient, who was diagnosed with autism and a seizure disorder, had brain surgery and began rehabilitation the following month.

[3] = anatabine 0.1 mg/kg single i.v., Male
[4] = anatabine 0.75 mg/kg single i.v., Female
[5] = anatabine 0.75 mg/kg single i.v., Male
[6] = Anatabine dose 0.1 mg/kg, individual animals B1-B10 (M and F)
[7] = Anatabine dose 0.1 mg/kg, individual animals B1-B10 (M and F), 0.1 mg/kg
[8] = Anatabine dose 0.75 mg/kg, individual animals C1-C10 (M and F)
[9] = Anatabine dose 0.75 mg/kg, individual animals C1-C10 (M and F), 0.75 mg/kg

T1 sequence (P17787 26-502): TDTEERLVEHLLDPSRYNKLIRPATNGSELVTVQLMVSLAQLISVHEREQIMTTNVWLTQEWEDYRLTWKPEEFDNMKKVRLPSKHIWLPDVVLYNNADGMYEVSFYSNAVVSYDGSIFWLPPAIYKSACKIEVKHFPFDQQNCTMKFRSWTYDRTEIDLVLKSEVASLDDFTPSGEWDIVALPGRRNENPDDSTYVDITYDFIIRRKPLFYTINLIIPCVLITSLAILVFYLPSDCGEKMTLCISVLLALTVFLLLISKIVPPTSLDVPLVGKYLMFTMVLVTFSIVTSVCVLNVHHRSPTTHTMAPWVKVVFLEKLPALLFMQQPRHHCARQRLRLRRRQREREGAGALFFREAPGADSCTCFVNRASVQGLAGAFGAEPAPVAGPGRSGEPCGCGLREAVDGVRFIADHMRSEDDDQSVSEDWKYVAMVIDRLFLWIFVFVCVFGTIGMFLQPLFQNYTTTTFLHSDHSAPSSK
T1 sequence (P43681 29-627): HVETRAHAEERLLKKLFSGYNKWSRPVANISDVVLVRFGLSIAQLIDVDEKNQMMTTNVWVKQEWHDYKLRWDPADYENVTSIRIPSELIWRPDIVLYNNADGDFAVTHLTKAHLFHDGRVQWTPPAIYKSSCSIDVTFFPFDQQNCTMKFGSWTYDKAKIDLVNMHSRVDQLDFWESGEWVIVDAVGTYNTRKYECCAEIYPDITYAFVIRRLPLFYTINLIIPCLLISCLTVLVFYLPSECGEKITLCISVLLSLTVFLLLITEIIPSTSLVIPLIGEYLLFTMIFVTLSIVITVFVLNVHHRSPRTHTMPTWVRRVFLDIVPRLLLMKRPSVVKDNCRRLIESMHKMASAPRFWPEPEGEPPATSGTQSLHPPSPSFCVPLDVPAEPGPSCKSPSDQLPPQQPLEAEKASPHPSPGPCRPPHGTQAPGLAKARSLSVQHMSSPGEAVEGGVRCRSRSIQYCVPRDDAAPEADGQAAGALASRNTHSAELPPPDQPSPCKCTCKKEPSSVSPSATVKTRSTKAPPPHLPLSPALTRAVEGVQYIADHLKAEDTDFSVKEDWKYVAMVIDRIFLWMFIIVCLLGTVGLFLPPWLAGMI

C1=CCC(c2cccnc2)NC1 (racemic) [Anatabine, 1,2,3,6-tetrahydro-[2,3′]bipyridinyl]
day 7 B.W. ([1]; 0.1 mg/kg, M): 318.2 g and 293.8 g and 297.6 g and 301.2 g and 300.7 g | day 8 B.W. ([1]; 0.1 mg/kg, M): 327.0 g and 309.0 g and 310.0 g and 311.0 g | day 9 B.W. ([1]; 0.1 mg/kg, M): 336.8 g and 303.4 g and 310.0 g and 318.7 g and 317.4 g | day 10 B.W. ([1]; 0.1 mg/kg, M): 346.4 g and 312.9 g and 319.9 g and 322.3 g and 330.4 g | day 11 B.W. ([1]; 0.1 mg/kg, M): 365.7 g and 331.0 g and 343.8 g and 346.9 g and 348.8 g | day 12 B.W. ([1]; 0.1 mg/kg, M): 359.9 g and 320.0 g and 341.9 g and 347.3 g and 360.9 g | day 13 B.W. ([1]; 0.1 mg/kg, M): 367 g and 331 g and 349 g and 334.4 g and 360 g | day 14 B.W. ([1]; 0.1 mg/kg, M): 391.0 g and 347.3 g and 368.8 g and 353.5 g and 373.8 g | day 1 B.W. ([1]; 0.75 mg/kg, F): 208.9 g and 207.7 g and 219.1 g and 196.7 g and 199.5 g | day 2 B.W. ([1]; 0.75 mg/kg, F): 206.2 g and 210.0 g (2×) and 225.5 g and 210.1 g | day 3 B.W. ([1]; 0.75 mg/kg, F): 214.0 g (2×) and 224.8 g and 213.6 g and 210.8 g | day 6 B.W. ([1]; 0.75 mg/kg, F): 224.4 g and 217.8 g and 236.2 g and 214.7 g and 221.4 g | day 7 B.W. ([1]; 0.75 mg/kg, F): 227.4 g and 243.2 g and 222 g and 219.3 g | day 8 B.W. ([1]; 0.75 mg/kg, F): 232.0 g and 220.0 g and 243.0 g and 224.6 g and 227.4 g | day 9 B.W. ([1]; 0.75 mg/kg, F): 237.3 g and 226.3 g and 247.6 g and 229.1 g and 230.6 g | day 10 B.W. ([1]; 0.75 mg/kg, F): 239.3 g and 232.2 g and 252.7 g and 230.9 g and 233.5 g | day 11 B.W. ([1]; 0.75 mg/kg, F): 250.9 g and 239.1 g and 268.8 g and 240.9 g and 244.1 g | day 12 B.W. ([1]; 0.75 mg/kg, F): 249.7 g and 233.5 g and 259.6 g and 241.6 g and 247.9 g | day 13 B.W. ([1]; 0.75 mg/kg, F): 248 g and 237.2 g and 268 g and 234 g and 243 g | day 14 B.W. ([1]; 0.75 mg/kg, F): 251.5 g and 242.8 g and 274.1 g and 250.7 g and 250.6 g | day 4 B.W. ([1]; 0.75 mg/kg, F, second one headed day 4): 225.4 g and 219.3 g and 237.1 g and 220.8 g and 227.6 g | day 4 B.W. ([1]; 0.75 mg/kg, F, day 4): 230.0 g and 214.7 g and 232.4 g and 222.1 g and 220.0 g | day 1 B.W. ([1]; 0.75 mg/kg, M): 242.7 g and 251.4 g and 231.9 g and 226.8 g and 239.8 g | day 2 B.W. ([1]; 0.75 mg/kg, M): 259.7 g and 240.0 g and 232.1 g and 247.2 g | day 3 B.W. ([1]; 0.75 mg/kg, M): 261.1 g and 269.1 g and 252.0 g and 243.0 g and 256.1 g | day 6 B.W. ([1]; 0.75 mg/kg, M): 282.4 g and 287.6 g and 268.2 g (2×) and 281.3 g | day 7 B.W. ([1]; 0.75 mg/kg, M): 294.5 g and 302.9 g and 281.8 g and 274.1 g and 287.1 g | day 8 B.W. ([1]; 0.75 mg/kg, M): 300.0 g and 310.6 g and 293.4 g and 284.2 g | day 9 B.W. ([1]; 0.75 mg/kg, M): 307.6 g and 319.8 g and 298.8 g and 296.2 g and 298.5 g | day 10 B.W. ([1]; 0.75 mg/kg, M): 317.2 g and 331.9 g and 307.9 g and 303.8 g and 306.8 g | day 11 B.W. ([1]; 0.75 mg/kg, M): 334.6 g and 339.8 g and 329.4 g and 316.1 g and 321.9 g | day 12 B.W. ([1]; 0.75 mg/kg, M): 327.6 g and 325.4 g and 322.5 g and 324.8 g and 331.1 g | day 13 B.W. ([1]; 0.75 mg/kg, M): 335.6 g and 338 g and 330 g and 326 g (2×) | day 14 B.W. ([1]; 0.75 mg/kg, M): 351.9 g and 357.9 g and 345.1 g and 339 g and 335.9 g | day 4 B.W. ([1]; 0.75 mg/kg, M, second one headed day 4): 282.3 g and 287.6 g and 269.9 g and 262.0 g and 275.7 g | day 4 B.W. ([1]; 0.75 mg/kg, M, day 4): 275.7 g and 286.0 g and 268.0 g and 256.3 g and 271.2 g | Mean weigth increase by day 14 ([1]; anatabine 0.1 mg/kg single i.v., Female): 39.0 g | Mean food consumption/day [1, 3]: 31.0 g | Mean weigth increase by day 14 [1, 3]: 132.5 g | Mean food consumption/day [1, 4]: 19.7 g | Mean weigth increase by day 14 [1, 4]: 43.1 g | Mean food consumption/day [1, 5]: 27.8 g | Mean weigth increase by day 14 [1, 5]: 111.6 g | inhibition of receptor activity (nAChR α4/β2): inhibited receptor activity | Urinalysis VOLUME (Urinalysis, day 15; Anatabine dose 0.1 mg/kg, animal B9 (F), unit not given): 0.5 | Urinalysis CLARITY (Urinalysis, day 15; [6]): HAZY | Urinalysis COLOR (Urinalysis, day 15; [6]): YELLOW | Urinalysis GLUCOSE (Urinalysis, day 15; [6]): NEGATIVE | Urinalysis UROBILINOGEN (Urinalysis, day 15; [6]): NORMAL | Urinalysis VOLUME (Urinalysis, day 15; [6]): <0.5 mL | Urinalysis BILIRUBIN (Urinalysis, day 15; [7]): NEGATIVE | Urinalysis BLOOD (Urinalysis, day 15; [7]): TRACE; also recorded: NEGA- | Urinalysis KETONES (Urinalysis, day 15; [7]): NEGATIVE | Urinalysis PROTEIN (Urinalysis, day 15; [7]): TRACE; also recorded: NEGA- | Urinalysis SPEC GRAVITY (Urinalysis, day 15; [7]): 1.027 (2×) and 1.039 (2×) and 1.048 and 1.036 and 1.045 and 1.017 | Urinalysis pH (Urinalysis, day 15; [7]): 8.5 and 7.5 (4×) and 7 (2×) and 8 | Urinalysis CLARITY (Urinalysis, day 15; [8]): HAZY | Urinalysis COLOR (Urinalysis, day 15; [8]): YELLOW | Urinalysis GLUCOSE (Urinalysis, day 15; [8]): NEGATIVE | Urinalysis UROBILINOGEN (Urinalysis, day 15; [8]): NORMAL | Urinalysis BILIRUBIN (Urinalysis, day 15; [9]): NEGATIVE | Urinalysis BLOOD (Urinalysis, day 15; [9]): TRACE; also recorded: NEGA- | Urinalysis KETONES (Urinalysis, day 15; [9]): NEGATIVE | Urinalysis PROTEIN (Urinalysis, day 15; [9]): TRACE | Urinalysis SPEC GRAVITY (Urinalysis, day 15; [9]): 1.05 and 1.051 and 1.043 and 1.049 and 1.016 and 1.039 and 1.036 and 1.014 | Urinalysis VOLUME (Urinalysis, day 15; [9]): <0.5 mL (8×) and <0.25 mL | Urinalysis pH (Urinalysis, day 15; [9]): 7 (3×) and 8 (3×) and 7.5 and 6 | cognitive benefits ([2]; from approximately one week): improved communication and language skills and the ability to focus | frequency of seizures ([2]; over 3½ weeks, one patient): decreased from one per day to approximately one per week
